From patent US12371454B2, “Cyclic peptide compound having Kras inhibitory action” (priority 2019, dated 2025)
Starred links: 1 amine or outer side, 2 acyl side, 3 side chain; linkers in the order of their positions; H or OH if unused. Positions of bridges follow the written chain, without caps; N, C: chain ends. Non-standard residues stand in square brackets, D forms with d. Residues, ends and D or L forms follow the SMILES beside them. *: point of attachment. hPhe(3-Cl-4-CF3) = N[C@@H](CCc1ccc(C(F)(F)F)c(Cl)c1)C(=O)O; NMePhe(4-CF3) = CN[C@@H](Cc1ccc(C(F)(F)F)cc1)C(=O)O; NMePhe(4-Cl) = CN[C@@H](Cc1ccc(Cl)cc1)C(=O)O; NMePhe(4-Me) = CN[C@@H](Cc1ccc(C)cc1)C(=O)O; NMePhe(2-Cl) = CN[C@@H](Cc1ccccc1Cl)C(=O)O; NMePhe(2-Me) = CN[C@@H](Cc1ccccc1C)C(=O)O; NMedβ3hAla = C[C@H](CC(=O)[*:2])N(C)[*:1]; NMeAla(cPent) = CN[C@@H](CC1CCCC1)C(=O)O; Phe(2-Cl) = N[C@@H](Cc1ccccc1Cl)C(=O)O; Phe(3-I) = N[C@@H](Cc1cccc(I)c1)C(=O)O; NMeAla(cPr) = CN[C@@H](CC1CC1)C(=O)O; NMeCha = CN[C@@H](CC1CCCCC1)C(=O)O; Hyp = O=C(O)[C@@H]1C[C@@H](O)CN1; NMeChg = CN[C@H](C(=O)O)C1CCCCC1; NMeD = CN[C@@H](CC(=O)O)C(=O)O; NMeL = CN[C@@H](CC(C)C)C(=O)O; αMeL = CC(C)C[C@](C)(N)C(=O)O; NMeV = CN[C@H](C(=O)O)C(C)C; d(β3hA) = C[C@@H](N)CC(=O)O; NMeA = CN[C@@H](C)C(=O)O; NMeAib = CNC(C)(C)C(=O)O; Nle = CCCC[C@H](N)C(=O)O; Piperidide = C1CCN(*)CC1; Pyrrolidide = C1CCN(*)C1; Ac5c = NC1(C(=O)O)CCCC1; Aze = O=C(O)[C@@H]1CCN1; Ac4c = NC1(C(=O)O)CCC1; Sar = CNCC(=O)O

Target: T1, Kras and SOS1 (biotin-tagged human Kras loaded with GDP, His-tagged human SOS1) (Homo sapiens, UniProt P01116, G12D)
T1 construct: made in house; host or cells: E. coli (stated for Kras only)
T1 sequence (P01116 1-188 isoform P01116-2 G12D): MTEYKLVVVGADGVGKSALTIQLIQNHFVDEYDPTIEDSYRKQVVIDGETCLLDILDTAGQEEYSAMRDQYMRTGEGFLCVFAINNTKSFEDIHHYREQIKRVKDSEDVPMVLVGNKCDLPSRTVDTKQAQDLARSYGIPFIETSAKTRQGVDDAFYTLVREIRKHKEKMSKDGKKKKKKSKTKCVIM
Assay: Protein-protein interaction inhibition between Kras and SOS1 (KrasGl2D-SOS PPI) using AlphaScreen
Assay type: binding
Conditions: AlphaScreen; biotin-tagged human Kras loaded with GDP, His-tagged human SOS1; read-out: KRAS G12D-SOS PPI IC50
Outline: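 Donor beads (nickel) hold His-SOS1; acceptor beads (streptavidin) hold biotin-Kras bound to GDP. Signal measured at 520-620 nm following 680 nm excitation.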

| Compound | IC50 [nM] |
| --- | --- |
| CCCC[C@@H]1NC(=O)[C@H](CCc2ccc(C(F)(F)F)c(Cl)c2)NC(=O)CN(C)C(=O)[C@H](CC2CCCC2)N(C)C(=O)[C@@H]2CCN2C(=O)[C@H](C)N(C)C(=O)[C@H]([C@@H](C)CC)NC(=O)[C@H](CC(C)C)N(C)C(=O)C[C@@H](C(=O)N2CCCCC2)N(C)C(=O)[C@H](CC(C)C)NC(=O)C(C)(C)N(C)C1=O [Compound 691] ([NMeL]I[NMeA][Aze][NMeAla(cPent)][Sar][hPhe(3-Cl-4-CF3)][Nle][NMeAib]L[NMeD]-Piperidide; lactam N-11) | 7.1 |
| CCCC[C@@H]1NC(=O)[C@H](Cc2cccc(I)c2)NC(=O)CN(C)C(=O)[C@H](Cc2ccc(Cl)cc2)N(C)C(=O)CN(C)C(=O)CN(C)C(=O)[C@H]([C@@H](C)CC)NC(=O)[C@H](CC(C)C)N(C)C(=O)C[C@@H](C(=O)N2CCCCC2)N(C)C(=O)[C@H](CC(C)C)NC(=O)[C@H](Cc2ccccc2C)N(C)C1=O [Compound 696] ([NMeL]I[Sar][Sar][NMePhe(4-Cl)][Sar][Phe(3-I)][Nle][NMePhe(2-Me)]L[NMeD]-Piperidide; lactam N-11) | 40 |
| CC[C@H](C)[C@@H]1NC(=O)[C@H](C)N(C)C(=O)C[C@@H](C)NC(=O)[C@H](C(C)C)N(C)C(=O)C2(CCCC2)NC(=O)[C@@H]2CCCN2C(=O)[C@H](CCc2ccc(C(F)(F)F)c(Cl)c2)NC(=O)CN(C)C(=O)[C@H](CC2CCCCC2)N(C)C(=O)CN(C)C(=O)CN(C)C1=O [Compound 697] (cyclo([Ac5c][NMeV][d(β3hA)][NMeA]I[Sar][Sar][NMeCha][Sar][hPhe(3-Cl-4-CF3)]P)) | 12 |
| CCO[C@@H]1C[C@H]2C(=O)NC3(CCC3)C(=O)N(C)[C@@H](C3CCCCC3)C(=O)N(C)[C@H](C)CC(=O)N(C)[C@@H](CC(C)C)C(=O)N[C@@H]([C@@H](C)CC)C(=O)N(C)[C@@H](C)C(=O)N3CC[C@H]3C(=O)N(C)[C@@H](Cc3ccc(C(F)(F)F)cc3)C(=O)N(C)CC(=O)N[C@@H](CCc3ccc(C(F)(F)F)c(Cl)c3)C(=O)N2C1 [Compound 698] (cyclo([Ac4c][NMeChg][NMedβ3hAla][NMeL]I[NMeA][Aze][NMePhe(4-CF3)][Sar][hPhe(3-Cl-4-CF3)][Hyp](Et))) | 23 |
| CC[C@H](C)[C@@H]1NC(=O)[C@H](C)N(C)C(=O)C[C@@H](C(=O)N2CCCC2)N(C)C(=O)[C@H](C(C)C)N(C)C(=O)[C@@H](C)NC(=O)[C@H](Cc2ccccc2Cl)N(C)C(=O)[C@H](CCc2ccc(C(F)(F)F)c(Cl)c2)NC(=O)CN(C)C(=O)[C@H](CC2CCCCC2)N(C)C(=O)CN(C)C(=O)CN(C)C1=O [Compound 702] ([NMeA]I[Sar][Sar][NMeCha][Sar][hPhe(3-Cl-4-CF3)][NMePhe(2-Cl)][dA][NMeV][NMeD]-Pyrrolidide; lactam N-11) | 130 |
| CC[C@H](C)[C@@H]1NC(=O)[C@H](CC(C)C)N(C)C(=O)C[C@@H](C(=O)N2CCCCC2)N(C)C(=O)[C@H](CC(C)C)NC(=O)C(C)(C)N(C)C(=O)[C@H](Cc2ccc(OC)cc2)NC(=O)[C@H](Cc2cccc(I)c2)NC(=O)CN(C)C(=O)[C@H](Cc2ccc(C)cc2)N(C)C(=O)[C@@H]2CCN2C(=O)[C@H](C)N(C)C1=O [Compound 703] ([NMeL]I[NMeA][Aze][NMePhe(4-Me)][Sar][Phe(3-I)]Y(Me)[NMeAib]L[NMeD]-Piperidide; lactam N-11) | 8.5 |
| CC[C@H](C)[C@@H]1NC(=O)[C@H](CC(C)C)N(C)C(=O)C[C@@H](C)NC(=O)[C@H](C(C)C)N(C)C(=O)[C@](C)(CC(C)C)NC(=O)[C@@H]2CCCN2C(=O)[C@H](CCc2ccc(C(F)(F)F)c(Cl)c2)NC(=O)CN(C)C(=O)[C@H](CC2CCCCC2)N(C)C(=O)CN(C)C(=O)CN(C)C1=O [Compound 705] (cyclo(I[Sar][Sar][NMeCha][Sar][hPhe(3-Cl-4-CF3)]P[αMeL][NMeV][d(β3hA)][NMeL])) | 360 |
| CC[C@H](C)[C@@H]1NC(=O)[C@H](CC(C)C)N(C)C(=O)C[C@@H](C(=O)N2CCCCC2)N(C)C(=O)[C@H](CC(C)C)NC(=O)C(C)(C)N(C)C(=O)[C@H](Cc2ccccc2Cl)NC(=O)[C@H](Cc2cccc(I)c2)NC(=O)CN(C)C(=O)[C@H](Cc2ccc(C)cc2)N(C)C(=O)CN(C)C(=O)CN(C)C1=O [Compound 706] ([NMeL]I[Sar][Sar][NMePhe(4-Me)][Sar][Phe(3-I)][Phe(2-Cl)][NMeAib]L[NMeD]-Piperidide; lactam N-11) | 66 |
| CC[C@H](C)[C@@H]1NC(=O)[C@H](CC(C)C)N(C)C(=O)C[C@@H](C)NC(=O)[C@H](CC2CC2)N(C)C(=O)C2(CCCC2)NC(=O)[C@@H]2CCCN2C(=O)[C@H](CCc2ccc(C(F)(F)F)c(Cl)c2)NC(=O)CN(C)C(=O)[C@H](CC2CCCCC2)N(C)C(=O)CN(C)C(=O)CN(C)C1=O [Compound 707] (cyclo([Ac5c][NMeAla(cPr)][d(β3hA)][NMeL]I[Sar][Sar][NMeCha][Sar][hPhe(3-Cl-4-CF3)]P)) | 14 |
